Data set [1] relates to Vero E6 cells. The experiment in a line: Cytotoxicity, neutral red uptake assay in Vero E6 cells.
Assay in data set [2]: as above
To be noted: African green monkey.

Data set [3] concerns the target EV-A71 2A^pro (Human enterovirus 71, UniProt Q66478). In words: FRET-based enzymatic assay, EV-A71 2A^pro. The data set is classed as biochemical.
For data set [4], the target named is HCoV-OC43 M^pro (Human coronavirus OC43, UniProt P0C6X6). The experiment in a line: FRET-based enzymatic assay, HCoV-OC43 M^pro.
Data set [5] addresses EV-D68 2A^pro (Human enterovirus D68, UniProt Q68T42). The experiment in a line: FRET-based enzymatic assay, EV-D68 2A^pro. The data set is classed as biochemical.
The target of data set [6] is EV-D68 3C^pro (Human enterovirus D68, UniProt Q68T42). The experiment in a line: FRET-based enzymatic assay, EV-D68 3C^pro. The data set is classed as biochemical.
In data set [7] the target is SARS-CoV M^pro (Severe acute respiratory syndrome coronavirus, UniProt P0C6X7). In words: biochemical. Particulars: IC50 against SARS-CoV M^pro.
For data set [8], the system named is Calu-3 cells. The experiment in a line: Cytotoxicity in Calu-3 cells.
Data set [9] concerns the target MERS-CoV M^pro (Middle East respiratory syndrome-related coronavirus, UniProt K9N7C7). The format is biochemical.
In data set [10] the target is EV-A71 3C^pro (Human enterovirus 71, UniProt Q66478). The experiment in a line: FRET-based enzymatic assay, EV-A71 3C^pro. The format is biochemical.
EV-A71 3C^pro, sequence (Q66478 1549-1731 limits assumed): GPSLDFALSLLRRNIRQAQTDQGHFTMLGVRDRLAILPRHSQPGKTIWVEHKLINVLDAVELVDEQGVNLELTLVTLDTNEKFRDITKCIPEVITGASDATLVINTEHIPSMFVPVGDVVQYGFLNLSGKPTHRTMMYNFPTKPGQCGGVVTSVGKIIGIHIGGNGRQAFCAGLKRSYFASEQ

EV-A71 2A^pro, sequence (Q66478 863-1012 limits assumed): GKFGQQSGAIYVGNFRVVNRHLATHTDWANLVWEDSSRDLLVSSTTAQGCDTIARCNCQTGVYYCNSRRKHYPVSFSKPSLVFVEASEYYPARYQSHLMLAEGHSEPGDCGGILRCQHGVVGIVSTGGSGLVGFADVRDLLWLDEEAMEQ
EV-D68 2A^pro, sequence (Q68T42 862-1008 limits assumed): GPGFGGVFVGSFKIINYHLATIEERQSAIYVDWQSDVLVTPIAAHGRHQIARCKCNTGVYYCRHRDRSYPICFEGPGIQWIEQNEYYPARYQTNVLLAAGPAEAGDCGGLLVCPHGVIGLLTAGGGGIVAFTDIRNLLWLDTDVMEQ
EV-D68 3C^pro, sequence (Q68T42 1549-1731 limits assumed): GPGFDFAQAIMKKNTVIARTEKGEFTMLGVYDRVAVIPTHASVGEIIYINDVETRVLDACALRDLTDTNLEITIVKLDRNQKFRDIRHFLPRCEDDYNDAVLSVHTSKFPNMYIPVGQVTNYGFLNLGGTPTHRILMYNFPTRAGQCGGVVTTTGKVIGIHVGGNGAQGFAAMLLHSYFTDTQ
HCoV-OC43 M^pro, sequence (P0C6X6 3247-3549 limits assumed): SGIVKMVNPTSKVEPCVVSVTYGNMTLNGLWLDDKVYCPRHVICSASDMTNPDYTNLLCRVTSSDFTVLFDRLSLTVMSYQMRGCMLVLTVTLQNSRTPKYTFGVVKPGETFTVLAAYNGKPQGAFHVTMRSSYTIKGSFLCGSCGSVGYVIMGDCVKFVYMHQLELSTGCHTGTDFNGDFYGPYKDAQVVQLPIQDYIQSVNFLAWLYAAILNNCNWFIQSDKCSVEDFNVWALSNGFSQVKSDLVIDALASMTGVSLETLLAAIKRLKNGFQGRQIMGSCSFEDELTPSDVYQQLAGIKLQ
MERS-CoV M^pro, sequence (K9N7C7 3248-3553 limits assumed): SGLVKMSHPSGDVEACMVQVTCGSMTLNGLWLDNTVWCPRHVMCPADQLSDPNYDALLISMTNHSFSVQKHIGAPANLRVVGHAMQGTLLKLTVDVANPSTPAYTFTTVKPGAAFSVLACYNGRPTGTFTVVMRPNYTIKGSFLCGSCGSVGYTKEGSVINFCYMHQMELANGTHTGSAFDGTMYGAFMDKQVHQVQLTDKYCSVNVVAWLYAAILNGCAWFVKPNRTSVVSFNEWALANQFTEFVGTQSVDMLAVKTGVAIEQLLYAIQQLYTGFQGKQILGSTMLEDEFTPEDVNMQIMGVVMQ

In the case of `CC(C)(C)c1ccc(N(C(=O)c2ccco2)C(C(=O)NC2CC2)c2cccnc2)cc1` (centres unmarked) [Compound 3, 2-[N-(4-tert-butylphenyl)-1-(furan-2-yl)formamido]-N-cyclopropyl-2-(pyridin-3-yl)acetamide], the “CC50 in Vero E6 cells” value in data set [1] is “moderate to high cellular cytotoxicity”.
In data set [2], `CC(C)(C)c1ccc(N(C(=O)c2ccco2)C(C(=O)NC2CCCC2)c2cccnc2)cc1` (centres unmarked) [Compound 5, 2-[N-(4-tert-butylphenyl)-1-(furan-2-yl)formamido]-N-cyclopentyl-2-(pyridin-3-yl)acetamide] showed a CC50 at 5 days greater than 100 µM.
Consider `CC(C)(C)c1ccc(N(C(=O)c2ccco2)C(C(=O)NC2CCCCC2)c2cccnc2)cc1` (centres unmarked) [Compound 6, 2-[N-(4-tert-butylphenyl)-1-(furan-2-yl)formamido]-N-cyclohexyl-2-(pyridin-3-yl)acetamide], for which the “CC50 in Vero E6 cells” value in data set [1] is listed as “moderate to high cellular cytotoxicity”.
On to `C[C@H](NC(=O)C(c1cccnc1)N(C(=O)c1ccco1)c1ccc([Si](C)(C)C)cc1)c1ccccc1` (stereo partly drawn) [Compound 14, 2-[1-(furan-2-yl)-N-[4-(trimethylsilyl)phenyl]formamido]-N-[(1S)-1-phenylethyl]-2-(pyridinyl)acetamide], for which the “CC50 in Vero E6 cells” value in [1] is recorded as “moderate to high cellular cytotoxicity”.
Consider `C[C@H](NC(=O)C(c1cccnc1)N(C(=O)c1ccco1)c1ccc(C2CCCCC2)cc1)c1ccccc1` (stereo partly drawn) [Compound 17, 2-[N-(4-cyclohexylphenyl)-1-(furan-2-yl)formamido]-N-[(1S)-1-phenylethyl]-2-(pyridin-3-yl)acetamide], for which the “CC50 in Vero E6 cells” value in data set [1] is on record as “moderate to high cellular cytotoxicity”.
Take `C[C@H](NC(=O)C(c1cccnc1)N(C(=O)c1ccco1)c1ccc(-c2ccco2)cc1)c1ccccc1` (stereo partly drawn) [Compound 18, 2-[1-(furan-2-yl)-N-[4-(furan-2-yl)phenyl]formamido]-N-[(1S)-1-phenylethyl]-2-(pyridin-3-yl)acetamide]: in data set [1], the “CC50 in Vero E6 cells” value is reported as “moderate to high cellular cytotoxicity”.
Still for that read-out and setting: next, `C[C@H](NC(=O)C(c1cccnc1)N(C(=O)c1ccco1)c1ccc(-c2cccs2)cc1)c1ccccc1` (stereo partly drawn) [Compound 19, 2-[1-(furan-2-yl)-N-[4-(thiophen-2-yl)phenyl]formamido]-N-[(1S)-1-phenylethyl]-2-(pyridin-3-yl)acetamide]: “moderate to high cellular cytotoxicity”.
In the case of `C[C@H](NC(=O)[C@@H](c1cccnc1)N(C(=O)c1ccco1)c1ccc(-c2ccccc2)cc1)c1ccccc1` [Compound 23R, (2R)-2-(N-{[1,1’-biphenyl]-4-yl}-1-(furan-2-yl)formamido)-N-[(1S)-1-phenylethyl]-2-(pyridin-3-yl)acetamide], the “cytotoxicity to Vero E6 cells (not cytotoxic at up to)” value in data set [1] was greater than 100 µM. Besides, the “IC50 against EV-A71 2A^pro” value in [3] (FRET-based enzymatic assay) was “not other viral proteases tested”. In data set [4], the “IC50 against HCoV-OC43 M^pro” value is recorded as “not other viral proteases tested”. The “IC50 against EV-D68 2A^pro” value in data set [5] (FRET-based enzymatic assay) was “not other viral proteases tested”. Also, in [6] (FRET-based enzymatic assay), the “IC50 against EV-D68 3C^pro” value is reported as “not other viral proteases tested”. In addition, the IC50 in data set [7] is no more than 0.27 µM. In addition, the “cytotoxicity in Calu-3 cells (not cytotoxic at up to)” value in [8] was greater than 100 µM. Also, the “IC50 against MERS-CoV M^pro” value in data set [9] is listed as “not other viral proteases tested”. The “IC50 against EV-A71 3C^pro” value in data set [10] (FRET-based enzymatic assay) is reported as “not other viral proteases tested”.
Consider `C[C@H](NC(=O)C(c1cccnc1)N(C(=O)c1cnco1)c1ccc(-c2ccccc2)cc1)c1ccccc1` (stereo partly drawn) [Compound 26, 2-(N-{[1,1’-biphenyl]-4-yl}-1-(1,3-oxazol-5-yl)formamido)-N-[(1S)-1-phenylethyl]-2-(pyridin-3-yl)acetamide], for which the “CC50 in Vero E6 cells” value in data set [1] is “moderate to high cellular cytotoxicity”.
Still for that read-out and setting: in the case of `O=C(NC1CCCCC1)C(c1cccnc1)N(C(=O)c1ccco1)c1ccc(-c2ccccc2)cc1` (centres unmarked) [Compound 34, 2-(N-{[1,1’-biphenyl]-4-yl}-1-(furan-2-yl)formamido)-N-cyclohexyl-2-(pyridin-3-yl)acetamide] it was “moderate to high cellular cytotoxicity”; in that of `C[C@H](NC(=O)C(c1cccnc1)N(C(=O)c1ccno1)c1ccc(C2CCCCC2)cc1)c1ccccc1` (stereo partly drawn) [Compound 36, 2-[N-(4-cyclohexylphenyl)-1-(1,2-oxazol-5-yl)formamido]-N-[(1S)-1-phenylethyl]-2-(pyridin-3-yl)acetamide], “moderate to high cellular cytotoxicity”.
`CC(C)C[C@H](NC(=O)OCc1ccccc1)C(=O)N[C@@H](C[C@@H]1CCNC1=O)C(O)S(=O)(=O)O` (some centres unmarked) [GC376, reference compound]: the IC50 was greater than 50 µM in [3], greater than 50 µM in data set [5], no more than 0.16 µM in data set [6] and no more than 0.16 µM in data set [10].

By CC50 is commonly meant the concentration that lowers cell viability or growth by half. One may read the IC50 as the point on the concentration scale where inhibition reaches its midpoint.
